Test results reported in ChEMBL document CHEMBL1201862, “PubChem BioAssay data set” (2004).
“And” between values parts separate entries of the source, which are not always exact repeats. Equal entries are not always repeated.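 The compound was tested at five concentrations on cells cultured in 96-well plates, with a 48-hour exposure period. GI50 is the concentration that inhibits growth by half.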 The source made the active and inactive calls. Rule as the data show it: active = GI50 up to about 1.1 µM and inactive = higher.

Experiments:
Test in all cases: NCI-60 cell line screen, 48 h
[1] = system: SK-MEL-5
[2] = system: HT-29
[3] = system: SN12C
[4] = system: M14
[5] = system: IGROV-1
[6] = system: SNB-19
[7] = system: RXF 393
[8] = system: UACC-62
[9] = system: HL-60
[10] = system: TK-10
[11] = system: LOX IMVI
[12] = system: SF-268
[13] = system: NCI-H522
[14] = system: SF-295
[15] = system: CCRF-CEM
[16] = system: SW-620
[17] = system: HCC 2998
[18] = system: SK-OV-3
[19] = system: A498
[20] = system: SR
[21] = system: K562
[22] = system: SK-MEL-28
[23] = system: NCI-H460
[24] = system: OVCAR-5
[25] = system: SNB-75
[26] = system: UACC-257
[27] = system: HCT-15
[28] = system: U-251
[29] = system: UO-31
[30] = system: ACHN
[31] = system: OVCAR-3
[32] = system: OVCAR-8
[33] = system: CAKI-1
[34] = system: SK-MEL-2
[35] = system: NCI-H226
[36] = system: COLO 205
[37] = system: OVCAR-4
[38] = system: MDA-N
[39] = system: Malme-3M
[40] = system: MCF7
[41] = system: DU-145
[42] = system: SF-539
[43] = system: MDA-MB-231
[44] = system: T47D

O=C(N/N=C/c1cc(Cl)cc(Cl)c1O)c1ccccc1O
GI50 [1]: 1.57 µM (inactive)
GI50 [2]: 3.65 µM (inactive)
GI50 [3]: 2360 nM (inactive)
GI50 [4]: 847 nM (active)
GI50 [5]: 2.62 µM (inactive)
GI50 [6]: 3180 nM (inactive)
GI50 [7]: 946 nM (active)
GI50 [8]: 323 nM (active)
GI50 [9]: 221 nM (active)
GI50 [10]: 2230 nM (inactive)
GI50 [11]: 398 nM (active)
GI50 [12]: 480 nM (active)
GI50 [13]: 441 nM (active)
GI50 [14]: 721 nM (active)
GI50 [15]: 279 nM (active)
GI50 [16]: 601 nM (active)
GI50 [17]: 2170 nM (inactive)
GI50 [18]: 687 nM (active)
GI50 [19]: 7500 nM (inactive)
GI50 [20]: 388 nM (active)
GI50 [21]: 977 nM (active)
GI50 [22]: 1310 nM (inactive)
GI50 [23]: 656 nM (active)
GI50 [24]: 2080 nM (inactive)
GI50 [25]: 2440 nM (inactive)
GI50 [26]: 2.04 µM (inactive)
GI50 [27]: 460 nM
GI50 [28]: 849 nM (active)
GI50 [29]: 2880 nM (inactive)
GI50 [30]: 447 nM (active)
GI50 [31]: 305 nM (active)
GI50 [32]: 198 nM (active)

OCC(O)C(O)C(O)C(/C=N\Nc1ncnc2c(Br)cc(Br)cc12)=N/Nc1ncnc2c(Br)cc(Br)cc12 (configuration not stated)
GI50 [1]: 3.45 µM (inactive) and 4.71 µM (inactive)
GI50 [2]: 4.84 µM (inactive) and 4.55 µM (inactive)
GI50 [33]: 4.85 µM (inactive) and 6.34 µM (inactive)
GI50 [4]: 8.2 µM (inactive) and 8.38 µM (inactive)
GI50 [34]: 5.41 µM (inactive) and 3.27 µM (inactive)
GI50 [5]: 4.71 µM (inactive) and 2.49 µM (inactive)
GI50 [35]: 3580 nM (inactive)
GI50 [11]: 6.43 µM (inactive) and 10.1 µM (inactive)
GI50 [36]: 3.17 µM (inactive) and 3.52 µM (inactive)
GI50 [12]: 3.78 µM (inactive) and 3.15 µM (inactive)
GI50 [37]: 2.81 µM (inactive) and 3.27 µM (inactive)
GI50 [38]: 7.46 µM (inactive) and 6.08 µM (inactive)
GI50 [16]: 5460 nM (inactive)
GI50 [39]: 6.4 µM (inactive) and 3.76 µM (inactive)
GI50 [40]: 1.24 µM (inactive) and 817 nM (active)
GI50 [41]: 5.9 µM (inactive) and 3.42 µM (inactive)
GI50 [20]: 3.4 µM (inactive) and 5.25 µM (inactive)
GI50 [21]: 5.07 µM (inactive) and 5.15 µM (inactive)
GI50 [42]: 8850 nM (inactive)
GI50 [26]: 8.15 µM (inactive) and 12.9 µM (inactive)
GI50 [28]: 2.49 µM (inactive) and 4.46 µM (inactive)
GI50 [43]: 3.67 µM (inactive) and 3.79 µM (inactive)
GI50 [44]: 2.57 µM (inactive) and 2.62 µM (inactive)
GI50 [30]: 5.58 µM (inactive) and 6.35 µM (inactive)
GI50 [31]: 4.28 µM (inactive) and 2.88 µM (inactive)
